“Also recorded” adds a separate entry of the source. Where two headings read alike, the source gives them in different places.
Tests used:
[1] = diuresis (urine production) in anesthetized, catheterized macaque monkeys
bicuculline spiking = assay: acute bicuculline seizure focus model in nonhuman primates (surface EEG); format: in vivo, Macaca nemestrina; conditions: for block of bicuculline spiking by comparator drugs: IV administration (FIG. 13); for effect on bicuculline spiking after oral dose: 10 mg/kg
ADs and hand-twitching = assay: stimulation-evoked afterdischarges (ADs) and hand-twitching in primate model; conditions: in vivo
Description: Stimulation-evoked […] evoked by a 4 sec train of 60 Hz biphasic pulses at 4-20 mA using a bipolar stimulating electrode (5 mm interelectrode distance) powered by a constant current source (Ojemann Cortical Stimulator, Integra Life Sciences Corporation, NJ, U.S.A.) placed on the sensory cortex, or by passing current between two of the three surface electrodes. The AD threshold was determined by stimulating at the lowest level that reliably triggered AD activity three times in a row and thresholds remained constant throughout recordings. AD activity was reliably elicited on the sensory cortex during the same experiments in which a bicuculline focus was created on the motor cortex. […] The brain is electrically stimulated for 4 seconds at varying current magnitudes until the “after discharge threshold” is determined: the magnitude of stimulation current that is just sufficient to elicit ADs. The stimulation artifacts are shown in the top lefthand trace, denoted by stars (*). The ADs are shown by orange bars. One can see that, in this case, 7 mA was not sufficient for eliciting ADs, but 8 mA reliably generated ADs. […] In this way, changes in the effect of a treatment on this type of electrical stimulation-evoked epileptiform activity can be quantified by measuring changes in the AD-threshold. From Haglund and Hochman, 2007.

epileptiform activity = assay: primate neocortical seizure model; format: in vivo; conditions: Furosemide at 10 mg/kg IV, bumetanide at 2 mg/kg IV
Description: The primate neocortical seizure model was used here for testing the effects of NKCC antagonists on epileptiform activity. This model and the techniques used to analyze the data was originally developed by Haglund and Hochman for the purpose of studying intrinsic optical signals in the human and primate brain, and how these signals could be used to map spread of seizure activity in the neocortex (Haglund et al. 1993, Haglund and Hochman, 2007). […] The afterdischarge protocol developed for human intraoperative studies as shown in the second figure below was also used in primate studies. As well, the physical properties of the optical signals from the brain generated by epileptiform activity (not shown here) (Haglund and Hochman, 2005, Haglund and Hochman 2007).

4-AP bursting = 4-AP bursting in primate neocortical seizure model; format: in vivo; conditions: Keppra 2×40 mg/kg
afterdischarge activity = conditions: cortical stimulation, human patient; cited from earlier work
[2] = system: spontaneous interictal spiking; conditions: 20 mg IV furosemide; cited from earlier work
[3] = system: maximal pentylenetetrazol (PTZ) seizures; conditions: pharmacology review provided to the FDA; cited from earlier work
[4] = system: maximal electroshock (MES) seizures; conditions: pharmacology review provided to the FDA; cited from earlier work
[5] = in vivo
[6] = first-pass metabolism and intramuscular absorption of Bumetanide Dibenzylamide; format: in vivo
Description: Refinement opportunities may include extended or controlled release oral capsule or tablet or use of a transdermal formulation. Intramuscular data shown below supports the development of a potential transdermal therapy.

fear-potentiated startle = assay: rat fear-potentiated startle (FPS) model of conditioned anxiety; format: in vivo, Long-Evans rats; conditions: 35 mg/kg IV
[7] = repeated dosing in healthy adult subjects: BUN, creatinine, serum chloride, urine specific gravity as signs of diuresis; format: in vivo, humans; conditions: healthy adults, eight capsules of 16 mg every 24 hours, day 1 to day 8
Description: Pharmacokinetic (PK) blood samples were collected and analyzed pre-dosing to establish baseline levels. Analysis was also done on day1, day 3, day 4, day 5, day 6, day 7, and day 8 following dosing. The samples were analysed for BUN (blood urea nitrogen), creatinine, serum chloride, and urine specific gravity. Diuresis is indicated by an out of proportion increase in serum BUN compared to creatinine (BUN increase out of proportion to creatinine), a decrease in urine specific gravity, and an increase in serum chloride. […] The grey horizontal lines in FIGS. 28-29 are indicative of an upper and a lower range for accepted normal values. The control-subject (placebo) are indicated with white-and-black dashed lines and grey dots.

[8] = PO, 10 mg/kg bumetanide or mol-Eq
[9] = PO gavage, CMC-water suspension, mol-Eq to 10 mg/kg bumetanide, bicuculline-generated spikes, pretreatment vs maximum change
[10] = PO, mol-Eq to 10 mg/kg bumetanide
[11] = PO, mol-Eq to 10 mg/kg bumetanide, interspike intervals

## CCCCNc1cc(C(=O)O)cc(S(N)(=O)=O)c1Oc1ccccc1 [Bumetanide, 3-(Aminosulfonyl)-5-(butylamino)-4-phenoxybenzoic acid, reference compound]
[1]; [8]
  diuretic response: potent diuretic effect
Bicuculline spiking
  block of bicuculline spiking by comparator drugs: block bicuculline spiking
Bicuculline spiking; listed as bumetanide
  block of bicuculline spiking by comparator drugs: suppress bicuculline spiking
Bicuculline spiking; IV, 2 mg/kg bumetanide or mol-Eq
  time postinjection of traces showing profound, nearly complete blockade of epileptiform activity: 81 min
Bicuculline spiking; IV, 2 mg/kg bumetanide or mol-Eq, in PEG-200
  effect on bicuculline spiking after intravenous dose: near-complete blockade of the bicuculline spiking
Bicuculline spiking; IV, 2 mg/kg bumetanide or mol-Eq, NPT 2042 experiment ended before recovery
  time postinjection of recovery to baseline pretreatment spiking: ~120 min
Bicuculline spiking; [9]
  Average % change in spike size: 23.7%
Bicuculline spiking; [8]
  effect on bicuculline spiking after oral dose: reduced spike height and frequency of bicuculline spiking; also recorded: transiently mediate a reduction in size and frequency of spiking
Bicuculline spiking; [10]
  Time to 50% recovery for spike sizes: 35 min
  Time to 50% recovery of ISI: 163 min
Bicuculline spiking; [11]
  Average % change in ISI: 68.7%
ADs and hand-twitching
  block of ADs and hand-twitching: block ADs and hand-twitching
Epileptiform activity
  anticonvulsant effect in primate seizure model: block seizures
4-AP bursting
  block of 4-AP bursting: block 4-AP bursting

## O=C1NC(c2ccccc2)(c2ccccc2)C(=O)N1COP(=O)(O)O [Fosphenatoin]
Bicuculline spiking
  block of bicuculline spiking by comparator drugs: does not
ADs and hand-twitching
  block of ADs and hand-twitching: block ADs and hand-twitching
4-AP bursting
  block of 4-AP bursting: block 4-AP bursting

## NS(=O)(=O)c1cc(C(=O)O)c(NCc2ccco2)cc1Cl [Furosemide, furosemide]
[1]; in vivo
  diuretic potency relative to bumetanide: about 1/10
Afterdischarge activity
  afterdischarge activity after treatment: abruptly blocked
  afterdischarge threshold: increased the afterdischarge threshold
Epileptiform activity
  anticonvulsant effect in primate seizure model: block seizures
[2]
  effect on spontaneous interictal spiking: Blockade of Spontaneous Interictal Spiking

## CC[C@@H](C(N)=O)N1CCCC1=O [Keppra, Levetiracetam]
[3]
  anticonvulsant activity in PTZ test: no anticonvulsant activity
Bicuculline spiking
  block of bicuculline spiking by comparator drugs: block bicuculline spiking; also recorded: suppress bicuculline spiking
ADs and hand-twitching
  block of ADs and hand-twitching: does not
[4]
  anticonvulsant activity in MES test: no anticonvulsant activity
Epileptiform activity
  anticonvulsant effect in primate seizure model: clear anticonvulsant effect
4-AP bursting
  block of 4-AP bursting: does NOT block 4-AP bursting

## CCCCNc1cc(C(=O)N2CCOCC2)cc(S(N)(=O)=O)c1Oc1ccccc1 [NPT 2024, Bumetanide Morpholino Amide]
Bicuculline spiking; [9]
  Average % change in spike size: 44%
Bicuculline spiking; [10]
  Time to 50% recovery for spike sizes: 110 min
  Time to 50% recovery of ISI: 180 min
Bicuculline spiking; [11]
  Average % change in ISI: 37.5%
Bicuculline spiking; n=4, FIG. 8
  interspike intervals compared with bumetanide parent: dramatic increase in interspike intervals
Bicuculline spiking; n=4, FIG. 9
  spikes per minute compared with bumetanide parent: dramatic decrease in spikes per minute
Bicuculline spiking; n=4, FIG. 10
  average spike height compared with bumetanide parent: dramatic decrease in the average spike height
[5]
  average rate of urine production after treatment: lower average rate of urine production compared to bumetanide
  percentage change in urine production over time: lower percentage change in urine production over time compared to bumetanide
  rate of urine production over time: lower rate of urine production over time compared to bumetanide

## CCCCNc1cc(C(=O)N(Cc2ccccc2)Cc2ccccc2)cc(S(N)(=O)=O)c1Oc1ccccc1 [NPT 2042, N, N-dibenzyl 3-aminosulfonyl-5-butylamino-4-phenoxybenzamide]
[6]; in vivo
  first-pass metabolism by the liver: susceptible to high first-pass metabolism by the liver
[6]; intramuscular
  absorption after intramuscular administration: can be absorbed through the microvessels of the muscle into the circulation
fear-potentiated startle
  anxiolytic effect in the FPS model: anxiolytic effect in the FPS model similar in magnitude to that elicited by equivalent (mg/kg) doses of bumetanide
Bicuculline spiking; in vivo
  Average % change in ISI: 26%
  Average % change in spike size: 35.2%
  Time to 50% recovery for spike sizes: 160 min
  Time to 50% recovery of ISI: 126 min
  time postinjection of recovery to baseline pretreatment spiking: > 155 min
Bicuculline spiking; in vivo, iv, 2 mg/kg
  effect on bicuculline spiking after intravenous dose: near-complete blockade of the bicuculline spiking
  time postinjection of traces showing profound, nearly complete blockade of epileptiform activity: 72 min
Bicuculline spiking; in vivo, po
  effect on bicuculline spiking after oral dose: reduced spike height and frequency of bicuculline spiking; also recorded: transiently mediate a reduction in size and frequency of spiking
[5]
  average rate of urine production after treatment: lower average rate of urine production compared to bumetanide
  percentage change in urine production over time: lower percentage change in urine production over time compared to bumetanide
  rate of urine production over time: lower rate of urine production over time compared to bumetanide
[7]
  indication of diuresis (BUN, creatinine, serum chloride, urine specific gravity): no indication of diuresis

## CCCCNc1cc(C(=O)N(CC)CC)cc(S(N)(=O)=O)c1Oc1ccccc1 [bumetanide diethylamide]
[1]; FIG. 21, compared to bumetanide
  percentage change in urine production over time: lower percentage change in urine production over time compared to bumetanide
[1]; FIG. 22, compared to bumetanide
  rate of urine production over time: lower rate of urine production over time compared to bumetanide
[1]; FIG. 23, compared to bumetanide
  average rate of urine production after treatment: lower average rate of urine production compared to bumetanide
Bicuculline spiking; [9]
  Average % change in spike size: 40%
Bicuculline spiking; [10]
  Time to 50% recovery for spike sizes: 59 min
  Time to 50% recovery of ISI: 59 min
Bicuculline spiking; in vivo
  Average % change in ISI: 65%

## CCCC(C)C1(CC)C(=O)NC(=S)NC1=O (stereo not shown) [pentothal, sodium thiopental]
4-AP bursting
  block of 4-AP bursting: block 4-AP bursting

Source: patent US20240398740A1, “THERAPEUTIC COMPOSITION, METHODS, AND USES FOR THE CONTROL OF SEIZURES” (priority 2022, published 2024)
